Measured values published in PubChem BioAssay AID1241 (SRMLSC, 2008).
pEC50: −log10 of the molar value.

Assay: compounds inducing NF-kB luciferase expression – cell-based, SH-SY5Y, dose response (AID 1241)
Details: SH-SY5Y NF-kB promoter luciferase reporter, fold induction
Work on `COc1ccc(/C=N/Nc2cc(OC)ncn2)cc1` yielded a pEC50 of 6.47. For `Cc1ccc(C(=O)Nc2ccc(Cl)cn2)cc1`, the pEC50 was 4.76. `Cc1c(-c2nc(N)nc(Nc3ccccc3F)n2)oc2ccccc12` gave a pEC50 of 5.69. With `C=CCNc1nc(-c2cc3ccccc3o2)cs1` the pEC50 was 6.22. For `COc1ccc(-c2coc3cc(OC)cc(O)c3c2=O)cc1`, the pEC50 was 5.76. For `C(=N\Nc1nc(-c2ccccc2)cs1)/c1cccs1`, the pEC50 was 5.22. Work on `Cc1[nH]n(-c2cccc(Cl)c2)c(=O)c1C=NCc1ccco1` yielded a pEC50 of 5.31. Work on `COc1ccc(/C=C/c2nc3ccccc3n2Cc2ccc(OC)c(OC)c2)cc1` yielded a pEC50 of 6.03. With `Clc1ccc2nc(N3CCCCC3)[nH]c2c1` the pEC50 was 5.11. For `COC(=O)c1ccc(/C=C(\C#N)c2ccccn2)cc1`, the pEC50 was 4.60. Molecule `CC(C)c1oc(=O)cc2c1[C@@H](O)[C@H]1OC(=O)[C@@]3(C)C[C@@H](O)[C@@H](O)[C@@]2(C)C13` (stereo partly specified) has a pEC50 of 5.35. With `COc1ccc2nc(-c3ccccc3)[nH]c2c1` the pEC50 was 5.88. Molecule `COc1ccccc1/C=C/C(=O)Nc1ccc2c(c1)CCC2` has a pEC50 of 5.25. `Cc1cc(C(=O)Nc2cccc(C(=O)O)c2)oc1C` gave a pEC50 of 4.53. `Cc1nc(NC(=O)c2csc3ccccc23)sc1C` showed a pEC50 of 6.03. In the case of `O=C(Nc1nc(-c2ccc3c(c2)OCCO3)cs1)C1CCCC1`, the pEC50 was 4.86. In the case of `COc1ccc(C(=O)/C=C/c2cn(CN3CCN(C)CC3)c3ccccc23)cc1`, the pEC50 was 5.99. With `O=C(Nc1cccnc1)c1cc2c(ccc3ccccc32)o1` the pEC50 was 5.46. In the case of `Cc1ccc(NC(=O)N2CCc3ccccc32)cc1`, the pEC50 was 6.12. Work on `CCNC(=O)O/N=C(\C)c1sc(-c2ccc(Cl)cc2)nc1C` yielded a pEC50 of 5.79. Work on `O=C(CC(Nc1ccc(F)cc1)C(=O)O)c1ccccc1` (stereo unspecified) yielded a pEC50 of 5.82. In the case of `COc1ccc(N2C(=S)NC3N2C(=S)NC3(C)c2ccccc2)cc1` (stereo unspecified), the pEC50 was 5.08. In the case of `Cn1cc([N+](=O)[O-])c(C(=O)Nc2ccc(-c3nc4ccccc4[nH]3)cc2)n1`, the pEC50 was 5.85. Work on `Cc1cc(NC(=O)Nc2ccccc2F)ccc1Br` yielded a pEC50 of 5.36. With `CCNC(=S)NNC(=O)c1cc(-c2ccc(OCC)cc2)nc2ccccc12` the pEC50 was 5.97. For `Cc1ccccc1-c1cc(-c2ccccc2O)n[nH]1`, the pEC50 was 4.75. `O=C(Nc1ccc2c(c1)CCC2)c1cccs1` gave a pEC50 of 5.19. `COc1cc(/C=N/N(C)c2ccccc2)ccc1O` gave a pEC50 of 5.58. With `O=C(Nc1ccccc1O)c1ccc(NS(=O)(=O)c2cccc3cccnc23)cc1` the pEC50 was 4.66. Work on `COc1cccc(-c2noc(-c3cccs3)n2)c1` yielded a pEC50 of 5.66. `CCC(=O)Nc1ccc2oc(-c3ccccc3Br)nc2c1` showed a pEC50 of 5.58. `N#C/C(=N\Nc1cccc(F)c1)C(=N)N1CCCCCC1` showed a pEC50 of 5.78. `Cn1cccc1/C=C1\CCc2ccccc2C1=O` gave a pEC50 of 5.79. In the case of `O=C(c1ccccc1)n1ccc(-c2cnc(-c3ccccc3)s2)n1`, the pEC50 was 5.83. `O=C(/C=C/Nc1ccc(Oc2ccccc2)cc1)c1ccco1` gave a pEC50 of 5.92. Work on `COc1ccc(-c2cc(=O)c3c(O)c(OC)c(O)cc3o2)cc1` yielded a pEC50 of 5.64. For `COc1ccc(-c2nc(-c3ccc(Br)cc3)no2)c(OC)c1`, the pEC50 was 5.59. Work on `CCOC(=O)c1ccc2nc(NC(=O)c3cccs3)sc2c1` yielded a pEC50 of 5.71. For `COc1ccc(NC(=O)c2csc3c2CCCC3)cc1`, the pEC50 was 4.78. `O=[N+]([O-])c1cc(O)c2ncccc2c1` gave a pEC50 of 5.10. `c1ccc(Nc2nc(-c3ccncc3)cs2)nc1` showed a pEC50 of 5.78. With `Cc1ccc2sc(-c3ccc(NC(=O)/C=C\C(=O)O)cc3)nc2c1` the pEC50 was 5.32. With `COc1cccc2sc(N(C)c3ccccc3)nc12` the pEC50 was 5.57. Molecule `COc1ccc2nc(NC(=O)Nc3ccccc3)sc2c1` has a pEC50 of 6.05. In the case of `CCOC(=O)c1sc(NC(=O)Nc2ccc(F)cc2)nc1C`, the pEC50 was 5.57. `CCN(CC)c1ccc(/C=N/NC(=S)NC)c(O)c1` gave a pEC50 of 5.70. Work on `O=C(Nc1ccccn1)c1ccc2ccccc2n1` yielded a pEC50 of 4.76. Work on `Cc1ccc(C(=O)/C=C/Nc2ccccc2C(N)=O)cc1` yielded a pEC50 of 6.29. With `Fc1ccccc1CSc1nc2ccccc2[nH]1` the pEC50 was 5.50. Molecule `c1ccc2oc(-c3csc(N4CCOCC4)n3)cc2c1` has a pEC50 of 6.02. Work on `Fc1ccccc1Nc1nc2c(s1)CCc1ccccc1-2` yielded a pEC50 of 5.47. With `O=C(/C=C/c1ccco1)Nc1ccc2c(c1)OCCO2` the pEC50 was 5.89. `Cc1ccc(OCc2nc(-c3cccs3)no2)c([N+](=O)[O-])c1` showed a pEC50 of 6.11. Work on `Cc1cccnc1Nc1nc(-c2ccccn2)cs1` yielded a pEC50 of 6.80. `CCOC(=O)Cc1ccc2sc(-c3ccccc3)nc2c1` showed a pEC50 of 5.19. `COc1cc(/C=N/O)ccc1OCc1ccc([N+](=O)[O-])cc1` showed a pEC50 of 5.77. With `Cc1ccc(N/N=C(\C#N)C(=N)N2CCCCCC2)cc1` the pEC50 was 5.73. With `O=C(/C=C/c1c[nH]c2ccccc12)c1ccccc1` the pEC50 was 5.26. For `COc1ccc(CN=C2Nc3ccccc3CS2)cc1`, the pEC50 was 4.88. Molecule `COc1cccc(CNc2ccc(Br)cn2)c1O` has a pEC50 of 5.41. For `COc1ccc(NC(=O)c2nc3ccccc3s2)cc1`, the pEC50 was 6.34. Work on `Oc1cccc(-c2nc3ccccc3s2)c1` yielded a pEC50 of 5.39. `Cc1cccnc1NCc1ccc(O)c2ncccc12` gave a pEC50 of 5.12. Molecule `O=C(CCS(=O)(=O)c1ccccc1)Nc1ccc(-c2nc3ccccc3s2)cc1` has a pEC50 of 5.94. Work on `O=C(Nc1ccc(N2CCCCC2)cc1)c1ccccc1` yielded a pEC50 of 6.01. Molecule `Cc1ccc(-c2nc3ccc([N+](=O)[O-])cc3[nH]2)cc1` has a pEC50 of 6.24.
